Laboratory results taken from patent publication US8796241B2, “Therapy of tumors and infectious agents deficient in methylthioadenosine phosphorylase” (priority 2007, dated 2014).
Marks after values point to notes of the source that are not given here.

Columns and labels:
MTAP(−) A549 cells [1] = assay: Clonogenic assay of A549 cells; format: cell-based, human
Experimental: (§1) Cell viability of adherent cell types was measured by clonogenic assay as follows: after releasing cells with trypsin and removing a portion of the cell suspension for Coulter counting, the remainder of the cell suspension was plated in serial dilutions in growth medium, without drugs. After a period sufficient for clones to reach a size visible by eye (usually 2 to 3 weeks), clones were stained with crystal violet in a saline/methanol solution. Dishes that had fewer than 100 clones were deemed suitable for counting. From these counts and from the dilution factors, the approximate number of viable cells, in the parent treatment dishes, was calculated. […] In clonogenic assays, clone size was often variable, especially after treatment with toxic drugs. Moreover, many of the very small clones may have arisen from cells detached during the weeks of incubation. […] Cloning efficiency for healthy, growing A549 cells was about 50%; for HF cells, efficiency was quite variable, ranging from 25 to 75% (perhaps because the HF cell stock varied, from experiment to experiment, in passage number).
A549 cells were incubated for 4 days with additions shown below, and viable cells measured by clonogenic assay. (Results shown are approximate; see Methods) Cell count in dish at start: 40,000
(§2) • MTAP(−) A549 lung tumor cell cultures were treated with F-Ade, with or without MTA, 5′-dAdo, or adenine (Ade), for three days. Coulter counts of cells, and viable cells as determined by clonogenic assay, are shown below: • Initial cell number: 10,340*
• A549 cell cultures were treated with DAP, with or without 5′-dAdo or adenine, for three days. After trypsinization, one-fourth of the cell suspension was counted, and raw data is shown below, with duplicate counts for each sample. The cell suspension was also serially diluted for clonogenic assay. • Counts at start of experiment: Dish one: 36,480; 39,160; Dish two: 52,680; 51,360. • Initial viable cells by clonogenic assay: 180,000.
• Cell cultures were treated with MTX or alanosine for one day. DAP was then added and 3 days later, cells were trypsinized and serially diluted for clonogenic assay. Results are shown below: • Initial viable cells: 146,000
• A549 cells were plated, and after they had adhered to the substrate, medium was changed to methionine-free medium with 10% dialyzed serum. L-ethionine (Eth) and MTA were added, and after 4 days, cell cultures were trypsinized and serially diluted for clonogenic assay. • Initial number of viable cells: 160,000*
• A549 cultures were treated with 6-thioguanine (TG) or 2,6,diaminopurine (DAP), or both, for 3 days. • Initial viable cells: 275,000 • After 3 days: […]

MTAP(+) ML-1 cells = assay: Coulter counts of ML-1 suspension cultures; format: cell-based
Experimental: For cell types that grow in suspension (e.g., ML-1, HL-60, K-562) medium was RPMI-1640 with 10% FBS (undialyzed).
(§3) For adherent cell types, cell numbers were determined periodically by releasing cells with trypsin (dead cells that were no longer adherent were removed by two prior rinses of the culture dish) and placing a portion of the resulting cell suspension in a Coulter counter. For cell types that grow in suspension, portions of the culture were counted directly, without trypsin treatment. Coulter counts of cells from each dish were done twice, and almost all experiments were done in duplicate. In the presentation of results, raw data for Coulter counts is given in some cases, while in others, counts have been rounded off to two to three significant figures. (Background Coulter counts—i.e., counts of diluent alone—were insignificant.)
For cells that grow in suspension, the effect of treatments was assessed solely by changes in Coulter count.
• ML-1 cells were incubated in RPMI 1640 with 10% FBS with 5′-dAdo (60 μM) for 6 hours. 5-fluorouracil (FU), 6-thioguanine (TG), or 2,6-diaminopurine (DAP) were then added, and after 2 additional days, 0.5 ml was taken for Coulter counts. Initial Coulter count/ml: 308,000

MTAP(+) HF cells [2] = assay: Coculture of HF and A549-ouaR cells, clonogenic assay; format: cell-based, human
Experimental: as §1
(§4) HF and A549-ouaR (a ouabain-resistant derivative of the human lung carcinoma cell line A549, isolated by Applicants) cells were cultured together in a medium containing DAP, and with or without 5′-dAdo. After 3 days, cultures were trypsinized and serially diluted into fresh medium for clonogenic assays. Some dishes were treated with 0.1 μM ouabain to kill HF cells and permit easy visualization of surviving A549-ouaR clones. Initial viable cells: HF cells, 11,000; A549-ouaR cells, 40,000.

MTAP(−) A549-ouaR cells = assay: as above; format: cell-based, human
Experimental: as §1, §4

[3] = tested on: human fibroblasts (HF cells), MTAP-positive; assay: Coculture of HF and MCF7 cells treated with DAP with or without MTA, photographs; format: cell-based
Experimental: (§5) FIGS. 6A and 6B present photographs of experiments examining the efficacy of the selective therapeutic method of the invention in two human-tissue coculture experiments. In both experiments human fibroblasts (HF cells), which are MTAP-positive, and MCF7 cells, an MTAP-negative human breast adenocarcinoma cell line, were seeded together into culture dishes, in DME supplemented with 10% dialyzed fetal bovine serum.
(§6) In the experiment of FIG. 6A the cell coculture was treated for four days with 100 μM DAP and 25 μM MTA. At the end of this period, some of the culture dishes were fixed, to be photographed. Other dishes were trypsinized and diluted five-fold into fresh (drug-free) medium with adenine added (to stop any further toxic action of DAP) and allowed to grow for two more, or five more, days, before being fixed for photography.
(§7) In the experiment of FIG. 6B cell cocultures were treated for three days with 200 μM DAP alone or with the addition of 50 μM MTA, or with no drugs at all. As shown in the photo of the dish without any drugs added to the culture medium, both HF and MCF7 grew very well; many large masses of MCF7 cells are visible, with the elongated HF cells interspersed, confluently, between the MCF7 masses.

[4] = tested on: MCF7 cells, an MTAP-negative human breast adenocarcinoma cell line; assay: as above; format: cell-based
Experimental: as §5, §6, §7

[5] = tested on: human and mouse tumor cells; assay: Killing of tumor cells by adenine analogs (Applicants' findings, no method given); format: cell-based
MTAP(+) HF cells [6] = assay: Coulter counts of HF cell cultures; format: cell-based, human; conditions: for Coulter counts: x56 = cells/dish
Experimental: For adherent cell types (e.g., HF, A549, MCF7) cells were plated in 60 mm -diameter plastic tissue culture dishes and incubated at 37° C. in a humidified 5% CO2 atmosphere, in Dulbecco's Modified Eagle's Medium (DME) with 10% fetal bovine serum (FBS). At the start of an experiment, medium was replaced with DME and 10% dialyzed FBS.
as §3
Cell cultures were treated with MeP, with or without 5′-dAdo or MTA, for 4 days. The cell cultures were then changed to fresh medium, with the addition of 30 μM Ade to inhibit further action of the analog. Two days later cultures were trypsinized and a portion of the suspension was counted.
• A. F-Ade was added to cultures of HF cells, with varying amounts of 5′-dAdo. After 3 days, cell numbers were counted. • Initial cell count: 1,100 • After three days:
• Cultures of human fibroblasts were treated with DAP, 5′-dAdo, MTA, adenine, or MTX. Thymidine (15 μM) was added to all cultures. • Initial count was: 1807 • Counts, as raw data, after 3 days of incubation, are shown below: […]
• Human fibroblasts in culture were treated with 6-thioguanine (TG), 2,6-diaminopurine (DAP), or 5′-dAdo for 3 days. After trypsinization, cell numbers were counted. • Initial cell number: 296,000

MTAP(+) HF cells [7] = assay: Clonogenic assay of HF cells; format: cell-based, human
Experimental: as §1
• B. F-Ade was added to cultures of MTAP(+) HF cells, with or without 5′-dAdo, for 3 days. Cultures were then trypsinized and serially diluted for clonogenic assay. • Initial number of viable cells per dish: 45,000 • Viable cells after 3 days shown below:
• HF cells were plated, and after they had adhered to the substrate, medium was changed to methionine-free medium, with 10% dialyzed serum. • Initial Coulter count: 73,000*; viable cells: 88,000 • After 3 days in methionine-free medium, with or without L-ethionine (Eth) or MTA: […]

MTAP(−) A549 cells [8] = assay: Coulter counts of A549 cell cultures; format: cell-based, human; conditions: three days, MTA, 5′-dAdo or Ade 40 μM where present, initial 10,340, x4 = cells per dish
Experimental: as §3, §2
• A549 cell cultures were treated with DAP, with or without 5′-dAdo or adenine, for three days. After trypsinization, one-fourth of the cell suspension was counted, and raw data is shown below, with duplicate counts for each sample. […]

[9] = a few days of treatment with 100-200 μM DAP
[10] = three days, DAP 200 μM, MTA 50 μM where present

SMILES: Nc1nc(N)c2[nH]cnc2n1 [DAP, 2,6-diaminopurine]
- toxicity to MTAP(−) A549 cells (MTAP(−) A549 cells [1]; 100 μM DAP): highly toxic
- Viable Cells (MTAP(−) A549 cells [1]; 3 days, TG 40 μM, DAP 50 μM where present, initial viable cells 275,000): 12,000
- Viable Cells (MTAP(−) A549 cells [1]; MTX 1 μM or alanosine 3 μM for one day, then DAP 40 μM, 3 days (where present), initial viable cells 146,000): 59,000
- Viable Cells (MTAP(−) A549 cells [1]; three days, DAP 100 μM, 5′-dAdo or Ade 30 μM where present, initial viable cells 180,000): 0
- Increase in cell number/ml, No 5′-dAdo (MTAP(+) ML-1 cells; 2 days, FU 3 μM, TG 20 μM, DAP 50 μM where present, initial Coulter count/ml 308,000): 220,000 /ml
- inhibition of growth of MTAP(+) ML-1 cells (MTAP(+) ML-1 cells; Example 14): inhibited growth
- killing of HF cells in coculture (MTAP(+) HF cells [2]; DAP alone): effectively killed
- Viable HF (MTAP(+) HF cells [2]; coculture, 3 days, DAP 125 μM, 5′-dAdo 7.5 μM where present, initial viable HF cells 11,000): 240
- killing of A549-ouaR cells in coculture (MTAP(−) A549-ouaR cells; DAP alone): effectively killed
- Viable A549-ouaR (MTAP(−) A549-ouaR cells; coculture, 3 days, DAP 125 μM, 5′-dAdo 7.5 μM where present, initial viable A549-ouaR cells 40,000): 0
- killing of HF cells in coculture [3, 9]: effectively killed
- HF cells in coculture (photographs, FIG. 6B) [3, 10]: very few, if any, HF or MCF7 cells have survived
- killing of MCF7 cells in coculture [4, 9]: effectively killed
- MCF7 cells in coculture (photographs, FIG. 6B) [4, 10]: very few, if any, HF or MCF7 cells have survived
- killing of human and mouse tumor cells [5]: very rapid and potent killing
- Coulter counts (MTAP(+) HF cells [6]; 3 days, MTX 10 μM, DAP 100 μM, 5′-dAdo, MTA or Ade 15 μM where present, thymidine 15 μM in all cultures, initial count 1807): 2,483
- Increase in cells/dish (MTAP(+) HF cells [6]; 3 days, TG 40 μM, DAP 50 μM, 5′-dAdo 60 μM where present, initial cell number 296,000): 254,000 cells/dish
- inhibition of MTAP(+) HF cells (MTAP(+) HF cells [6]; Example 8): inhibited
- inhibition of HF cell growth (MTAP(+) HF cells [6]; Example 15): inhibited

SMILES: Nc1nc(F)nc2nc[nH]c12 [F-Ade, 2-fluoroadenine]
- toxicity to A549 tumor cells, clonogenic assay (MTAP(−) A549 cells [1]; 1 to 2 μM F-Ade): highly toxic
- Viable Cells (MTAP(−) A549 cells [1]; three days, F-Ade 1 μM, MTA, 5′-dAdo or Ade 40 μM where present): 64
- Viable Cells (MTAP(−) A549 cells [1]; three days, F-Ade 2 μM, MTA, 5′-dAdo or Ade 40 μM where present): 0
- survival of HF cells (MTAP(+) HF cells [7]; 2 μM F-Ade, after 3 days): no HF cells survive
- Viable Cells (MTAP(+) HF cells [7]; 3 days, F-Ade 2 μM, 5′-dAdo 30 μM where present, initial viable cells per dish 45,000): 0*
- Coulter counts (MTAP(−) A549 cells [8]; F-Ade 1 μM): 7,980
- Coulter counts (MTAP(−) A549 cells [8]; F-Ade 2 μM): 7,890
- killing of human and mouse tumor cells [5]: very rapid and potent killing
- killing of human tumor cells ([5]; very short-term assays of 6 to 12 hours): effectively kill
- Coulter counts (MTAP(+) HF cells [6]; 3 days, F-Ade 0.3 μM, 5′-dAdo 7.5 μM where present, initial count 1,100): 1478
- Coulter counts (MTAP(+) HF cells [6]; 3 days, F-Ade 0.6 μM, 5′-dAdo 7.5 μM where present, initial count 1,100): 976
- inhibition of HF cell growth (MTAP(+) HF cells [6]; increasing concentrations of F-Ade): increasing inhibition
